Measurements reported in patent publication US10188706B2, “Plasminogen activator mutants as anti-fibrinolytic agents” (HADASIT MEDICAL RESEARCH SERVICES & DEVELOPMENT LIMITED, priority 2012, dated 2019).
“Also recorded” adds a separate entry of the source.

Columns and labels:
trauma patients = conditions: early administration of a short course (Ker K. ibid.); cited from earlier work
[1] = system: patients undergoing elective surgery; conditions: 53 studies, 3836 participants (Ker K. et al. 2012); cited from earlier work
uPA = target: T1, uPA (Homo sapiens, UniProt P00749); assay: Plasminogen activator activity, chromogenic assay without fibrin, activation by uPA; assay type: biochemical; conditions: plasminogen 500 nM, uPA 20 nM; mutants 100 nM or TA 200 nM alone; FIG. 2D
T1 construct: Single-chain urokinase (uPA) was purified, characterized as previously reported; made in house
Method: Plasminogen Activator Activity
Plasminogen activator activity was determined by adding tPA (50 nM) or uPA (20 nM), to a reaction mixture containing Glu-plasminogen and the plasmin chromogenic substrate Spectrazyme PL (100 μM) in phosphate-buffered saline (PBS) at 37° C., and the light absorbance at 405 nm was measured continuously over time. The initial velocities of plasmin generation at the different conditions were calculated from the change in the A405 nm over time. The initial velocity of the reaction at each plasminogen concentration was obtained by calculating the change in the rate of A405 over different time intervals and the results were expressed as the change in optical density (ΔOD) per minute, which represents the slope of the initial velocity of plasminogen activation (Higazi A et al., J Biol Chem. (1995), 270(29):17375-80).

WT mice subjected to CHI = assay: Closed head injury (CHI) model of TBI in WT mice; assay type: in vivo, mouse; conditions: WT mice, IV immediately after or 2 hrs after CHI, Hgb at 2 or 8 hrs, MRI at 24 hrs
Method: Eight to twelve weeks old C57 mice obtained from Harlan, Israel. Mice were administered standard laboratory chow and water ad libitum, and kept in controlled temperature and light conditions. Animal experiments were carried out according to the guidelines of the Hebrew University-Institutional Committee for Care and Use of Laboratory Animals, and with the committee's approval.
(§1) Closed Head Injury (CHI) Model
(§2) Head trauma was induced by using a modified weight-drop device, as previously described (Chen Y. et al. (1996) J. Neurotrauma, 13:557-568). Briefly, after induction of ether anesthesia, a midline longitudinal incision was made, the skin was retracted and the skull was exposed. The left anterior frontal area was identified and a Teflon tipped cone (2-mm diameter) was placed 1 mm lateral to the midline, in the midcoronal plane. The head was held in place manually and a 75-g weight was dropped on the cone from a height of 18 cm, resulting in focal injury to the left hemisphere. After trauma, the mice received supporting oxygenation with 95% 02 for no longer than 2 min and were then returned to their cages. In sham controls only anesthesia and skin incision were carried out.

[2] = system: tPA-/- and uPA-/- mice subjected to CHI; assay: Closed head injury (CHI) model in tPA-/- and uPA-/- mice; assay type: in vivo, mouse; conditions: 5 mg/kg each
Excerpt: as §1, §2

[3] = system: mice treated with Coumadin and subjected to CHI; assay: Closed head injury (CHI) in mice anticoagulated with warfarin (Coumadin); assay type: in vivo, mouse; conditions: for extent of ICH post CHI after anticoagulation: warfarin prior to CHI
Excerpt: as §1, §2

## NC[C@H]1CC[C@H](C(=O)O)CC1 [TA, tranexamic acid, reference compound]
Trauma patients
  death, vascular occlusive events and frequency of blood transfusions: reduced death, vascular occlusive events and the frequency of blood transfusions
[1]
  need for blood transfusion: reduced the need for blood transfusion by a third
uPA
  plasminogen activation by uPA in the absence of fibrin (change in OD per minute): dramatically stimulated; also recorded: mimics the effect of fibrin only in the case of uPA

## WT-tPA: wild type tissue plasminogen activator; recombinant tPA from Genentech
WT mice subjected to CHI
  intracerebral hemorrhage (MRI, extravasation of Hgb) post CHI: increased the extent of intracerebral hemorrhage
WT mice subjected to CHI; listed as WT tPA
  intracerebral hemorrhage (MRI, extravasation of Hgb) post CHI: exacerbated
[2]
  injury phenotype (ICH) of knock-out mice after exogenous plasminogen activator: rescued

## CC(=O)CC(c1ccccc1)c1c(O)c2ccccc2oc1=O (stereo not drawn) [warfarin]
[3]; WT mice
  extent of ICH post CHI after anticoagulation: increased the extent of ICH
[3]; mice anticoagulated with warfarin prior to CHI
  mean INR at the time of trauma: 2.5
[3]; tPA-/- or uPA-/- mice
  extent of ICH post CHI after anticoagulation: had no such effect
